Results taken from patent US20190000889A1, “METHODS FOR TREATING DIABETES” (CITY OF HOPE, priority 2015, published 2019).

What was measured:
Type in all cases: in vivo
C57BL/6 mice = assay: Alloxan induction of diabetes, blood glucose levels by day 28; settings: one i.v. dose Alloxan 70 mg/kg, day 28, n=222
Description: 8-week-old female mice were I.V. injected with β cell toxin Alloxan (Sigma) at 70 mg/kg body weight. Tail vein blood glucose was measured daily or twice a week with Precision Xtra Glucose Meter (Abbott Diabetes Care Inc.) with a maximum reading of 500 mg/dL Tamoxifen (TM, Sigma) was prepared at 20 mg/mL in corn oil (Sigma). For tracing studies in adult mice, a total of 20 mg of TM was given […] in five doses (each 4 mg) over a 2-week period. Mice rendered diabetic (>300 mg/dL) over a period of 28 days were used in subsequent experiments.
This example investigates whether Sox9^+ pancreatic ductal cells could give rise to insulin-producing β cells in adult diabetic mice after GE treatment, using non-autoimmune Sox9^CreERT2R26^mT/mG C57BL/6 mice. First, a β cell neogenesis mouse model in non-autoimmune diabetic C57BL/6 mice was established. 8 week-old adult female C57BL/6 mice were induced to develop diabetes by one intravenous injection of Alloxan (70 mg/kg body weight) as previously described (14, 27). Mice developed variable levels of hyperglycemia, including mild (<300 mg/dL), medium (300-450 mg/dL) and high hyperglycemia (>450 mg/dL). C57BL/6 mice (n=222) were induced to render diabetic by intravenously injecting one dose of Alloxan (70 mg/kg body weight) at day 0. Blood glucose (BG) concentrations in mice were measured twice a week for 4 weeks.

[1] = system: Sox9+ pancreatic ductal cells; assay: Lineage tracing of Sox9+ ductal cells in Sox9CreERT2 R26mT/mG mice, long-term low-dose GE (islets); settings: Sox9CreERT2 R26mT/mG C57BL/6 mice, TM 20 mg in five doses over 2 weeks
Description: 8 weeks old female Sox9^CreERT2 R26^mT/mG mice were first injected with Tamoxifen™ to label the Sox9/EGFP^+ cells, then the mice were induced to develop diabetes and treated with PBS or GE and monitored as described in FIG. 2A. At the end of experiments, pancreases were stained for Insulin and EGFP, and merged staining was also shown.
(§1) 8-week-old female mice were I.V. injected with β cell toxin Alloxan (Sigma) at 70 mg/kg body weight. Tail vein blood glucose was measured daily or twice a week with Precision Xtra Glucose Meter (Abbott Diabetes Care Inc.) with a maximum reading of 500 mg/dL Tamoxifen (TM, Sigma) was prepared at 20 mg/mL in corn oil (Sigma). […]
Percentage of EGFP^+Sox9^+ cells was determined by the number of EGFP^+Sox9^+ cells divided by the total number of Sox9^+ cells. Cells were counted in ten random fields of view of a tissue section. To quantify the number of lineage-labeled Insulin^+ cells, all Insulin^+ cells and Ins/EGFP^+Ins^+ cells on a section were counted, and then the percentage of Ins/EGFP^+Ins^+ cells amongst total Insulin^+ cells was determined. To quantify the number of lineage-labeled Insulin^+ cells arising from Sox9^+ cells, all Insulin^+ cells and Sox9/EGFP^+Ins^+ cells on a section were counted, and then the percentage of Sox9/EGFP^+Ins^+ cells among total Insulin^+ cells was determined. […] Average count of each mouse was calculated. […]

[2] = system: pre-existing insulin-producing β cells; assay: Lineage tracing of pre-existing β cells in Ins1CreERT R26mT/mG mice, long-term low-dose GE; settings: non-diabetic Ins1CreERT R26mT/mG mice, TM 20 mg in five doses over 2 weeks
Description: 8 weeks old female Ins1^CreERTR26^mT/mG mice were first given I.P. injection of Tamoxifen™ every two days over a 2-week period to induce EGFP expression and label the pre-existing β cells. Thereafter, mice were induced to develop diabetes with Alloxan, and mice with medium or high hyperglycemia were treated with GE or PBS control. At the end of the experiments, the pancreases were harvested and stained for insulin and EGFP, and merged staining was also shown. Nuclei were labeled by DAPI. The percentage of EGFP^+Ins^+ cells amongst total Insulin^+ cells was calculated. Normal non-diabetic mice were used as a control for checking EGFP labeling efficiency.
as §1
Percentage of EGFP^+Sox9^+ cells was determined by the number of EGFP^+Sox9^+ cells divided by the total number of Sox9^+ cells. Cells were counted in ten random fields of view of a tissue section. […] To quantify Sox9/EGFP^+Ins^+ cells among ductal tubes, all Sox9/EGFP^+ ductal cells co-expressing insulin in ducts were counted on a section. […] Average count of each mouse was calculated. […]

Structure (SMILES) | Mouse No. with high hyperglycemia (BG ≥ 450 mg/dL) (C57BL/6 mice) | Mouse No. with medium hyperglycemia (300 ≤ BG < 450 mg/dL) (C57BL/6 mice) | Mouse No. with mild hyperglycemia (BG < 300 mg/dL) (C57BL/6 mice) | Percentage of mice with high hyperglycemia (BG ≥ 450 mg/dL) (C57BL/6 mice) | Percentage of mice with medium hyperglycemia (300 ≤ BG < 450 mg/dL) (C57BL/6 mice) | Percentage of mice with mild hyperglycemia (BG < 300 mg/dL) (C57BL/6 mice) | Pancreatic Sox9-expression ductal epithelial cells labeled with EGFP [1] | Pre-existing β cells in the islets labeled with EGFP [2]
O=C1NC(=O)C(=O)C(=O)N1 [Alloxan] | 83 | 101 | 38 | 38% | 45% | 17% | – | –
CC/C(=C(\c1ccccc1)c1ccc(OCCN(C)C)cc1)c1ccccc1 [TM, Tamoxifen] | – | – | – | – | – | – | over 90% | more than 90%
